Experimental data: patent publication US20090227600A1, “4-(PYRAZINE-2-YL) -PYRROLIDINE -2-CARBOXYLIC ACID COMPOUNDS AND DERIVATIVES THEREOF AS HEPATITIS C VIRUS INHIBITORS” (priority 2004, published 2009)

Tested on: Huh-7 HCV replicon cells (sub-line 5-15; genotype 1b)
Test: Replicon ELISA cell based assay, genotype 1b
Parameters: species or system HCV genotype 1b
Details: Hepatitis C virus, Huh-7 genotype 1b replicon (sub-line 5-15), 72 hours
Protocol: 100 μL of medium containing 10% FCS were added to each well of clear, flat-bottomed 96 well microplates, excepting wells in the top row. Test compound was diluted in assay medium to twice the final required starting concentration from a 40 mM stock solution in DMSO. 200 μL of the starting dilution were introduced into two wells each in the top row and doubling dilutions made down the plate by the sequential transfer of 100 μL aliquots with thorough mixing in the wells; the final 100 μL were discarded. The two bottom rows were not used for compound dilutions. Huh-7 HCV replicon cell monolayers nearing confluency were stripped from growth flasks with versene-trypsin solution and the cells were resuspended in assay medium at either 2×10^5 cells/mL (sub-line 5-15; genotype 1b; Lohmann, V., Komer, F., Koch, J-O., Herian, U., Thielmann, L. And Bartenschlager, R., 1999, Science, 285, pp 110-113) or at 3×10^5 cells/mL (genotype 1a; Gu, B., Gates, A. T., Isken, O., Behrens, S. E. and Sarisky, R. T., J. Virol., 2003, 77, 5352-5359). 100 μL of cell suspension were added to all wells and the plates incubated at 37° C. for 72 hours in a 5% CO2 atmosphere.
Following incubation, the assay medium was aspirated from the plates. The cell sheets were washed by gentle immersion in phosphate buffered saline (PBS), which was then aspirated off, and fixed with acetone:methanol (1:1) for 5 minutes. Following a further wash with PBS, 100 μL of ELISA diluent (PBS+0.05% v/v Tween 20+2% w/v skimmed milk powder) were added to all wells and the plates incubated at 37° C. for 30 minutes on an orbital platform. The diluent was removed and each well then received 50 μL of a 1/200 dilution of anti-HCV specific, murine, monoclonal antibody (either Virostat #1872 or #1877), except for wells in one of the compound-free control rows which received diluent alone to act as negative controls. The plates were incubated at 37° C. for 2 hours and washed 3 times with PBS/0.05% Tween 20, then 50 μL of horseradish peroxidase conjugated, anti-mouse, rabbit polyclonal serum (Dako #P0260), diluted 1/1000, were added to all wells. The plates were incubated for a further hour, the antibody removed and the cell sheets washed 5 times with PBS/Tween and blotted dry. The assay was developed by the addition of 50 μL of ortho-phenylenediamine/peroxidase substrate in urea/citrate buffer (SigmaFast, Sigma #P-9187) to each well, and colour allowed to develop for up to 15 minutes. The reaction was stopped by the addition of 25 μL per well of 2 M sulphuric acid and the plates were read at 490 nm on a Fluostar Optima spectrophotometer.
The substrate solution was removed and the plates were washed in tap water, blotted dry and the cells stained with 5% carbol fuchsin in water for 30 minutes. The stain was discarded and the cell sheets washed, dried and examined microscopically to assess cytotoxicity.
The absorbance values from all compound-free wells that had received both primary and secondary antibodies were averaged to obtain a positive control value. The mean absorbance value from the compound-free wells that had not received the primary antibody was used to provide the negative (background) control value. The readings from the duplicate wells at each compound concentration were averaged and, after the subtraction of the mean background from all values, were expressed as a percentage of the positive control signal. The quantifiable and specific reduction of expressed protein detected by the ELISA in the presence of a drug can be used as a measure of replicon inhibition. GraFit software was used to plot the curve of percentage inhibition against compound concentration and derive the 50% inhibitory concentration (IC50) for the compound.

SMILES | IC50
COc1cc(C(=O)N2[C@@H](c3nccs3)[C@@H](c3cnccn3)C[C@@]2(CC(C)C)C(=O)O)ccc1C(C)(C)C (racemic) [Compound A, rel-(2S,4S,5R)-2-Isobutyl-1-(4-tert-butyl-3-methoxybenzoyl)-4-(pyrazin-2-yl)-5-(1,3-thiazol-2-yl)pyrrolidine-2-carboxylic acid, reference compound] | 100 to 10000 nM
COc1cc(C(=O)N2[C@@H](c3nccs3)[C@@H](c3cnccn3)C[C@@]2(Cc2ccccn2)C(=O)O)ccc1C(C)(C)C (racemic) [Compound C, rel-(2R,4S,5R)-1-(4-tert-Butyl-3-methoxybenzoyl)-2-(pyridin-2-ylmethyl)-4-(pyrazin-2-yl)-5-(1,3-thiazol-2-yl)pyrrolidine-2-carboxylic acid, reference compound] | 100 to 10000 nM
COc1cc(C(=O)N2[C@@H](c3nccs3)[C@@H](c3cnccn3)C[C@@]2(Cc2c[nH]cn2)C(=O)O)ccc1C(C)(C)C (racemic) [Compound D, rel-(2R,4S,5R)-1-(4-tert-Butyl-3-methoxybenzoyl)-2-(1H-imidazol-4-yl-methyl)-4-(pyrazin-2-yl)-5-(1,3-thiazol-2-yl)-pyrrolidine-2-carboxylic acid, reference compound] | 100 to 10000 nM
COc1cc(C(=O)N2[C@@H](c3cncs3)[C@@H](c3cnccn3)C[C@@]2(CCSC)C(=O)O)ccc1C(C)(C)C (racemic) [Compound E, rel-(2R,4S,5R)-1-(4-tert-Butyl-3-methoxybenzoyl)-2-(2-(methylthio)ethyl)-4-(pyrazin-2-yl)-5-(1,3-thiazol-5-yl)-pyrrolidine-2-carboxylic acid, reference compound] | 100 to 10000 nM
COc1cc(C(=O)N2[C@@H](c3nccs3)[C@@H](c3cnccn3)C[C@@]2(CCS(C)(=O)=O)C(=O)O)ccc1C(C)(C)C (racemic) [Compound F, rel-(2R,4S,5R)-1-(4-tert-Butyl-3-methoxybenzoyl)-2-(2-(methylsulphonyl)ethyl)-4-pyrazin-2-yl-5-(1,3-thiazol-2-yl)-pyrrolidine-2-carboxylic acid, reference compound] | > 10000 nM
COc1cc(C(=O)N2[C@@H](c3nccs3)[C@@H](c3cnccn3)C[C@@]2(Cc2ccccc2)C(=O)O)ccc1C(C)(C)C (racemic) [Compound G, rel-(2R,4S,5R)-1-(4-tert-Butyl-3-methoxybenzoyl)-2-(phenylmethyl)-4-(pyrazin-2-yl)-5-(1,3-thiazol-2-yl)pyrrolidine-2-carboxylic acid, reference compound] | 100 to 10000 nM
COc1cc(C(=O)N2[C@@H](c3nccs3)[C@@H](c3cnccn3)C[C@@]2(Cc2cscn2)C(=O)O)ccc1C(C)(C)C (racemic) [Example 1, rel-(2R,4S,5R)-1-(3-Methoxy-4-tert-butylbenzoyl)-4-(pyrazin-2-yl)-2-(1,3-thiazol-4-ylmethyl)-5-(1,3-thiazol-2-yl)pyrrolidine-2-carboxylic acid] | < 100 nM
COc1cc(C(=O)N2[C@@H](c3nccs3)[C@@H](c3cnccn3)C[C@@]2(Cc2nccs2)C(=O)O)ccc1C(C)(C)C (racemic) [Example 3, rel-(2R,4S,5R)-1-(3-Methoxy-4-tert-butylbenzoyl)-4-(pyrazin-2-yl)-2-(1,3-thiazol-2-ylmethyl)-5-(1,3-thiazol-2-yl)pyrrolidine-2-carboxylic acid] | < 100 nM
COc1cc(C(=O)N2[C@@H](c3ncc(C)s3)[C@@H](c3cnccn3)C[C@@]2(Cc2ccsn2)C(=O)O)ccc1C(C)(C)C (racemic) [Example 5, rel-(2R,4S,5R)-1-(3-Methoxy-4-tert-butylbenzoyl)-5-(5-methyl-1,3-thiazol-2-yl)-4-(pyrazin-2-yl)-2-(1,2-thiazol-3-ylmethyl)pyrrolidine-2-carboxylic acid] | < 100 nM
COc1cc(C(=O)N2[C@@H](c3nccs3)[C@@H](c3cnccn3)C[C@@]2(Cc2ccsn2)C(=O)O)ccc1C(C)(C)C (racemic) [Example 7, rel-(2R,4S,5R)-1-(3-Methoxy-4-tert-butylbenzoyl)-4-(pyrazin-2-yl)-2-(1,2-thiazol-3-ylmethyl)-5-(1,3-thiazol-2-yl)pyrrolidine-2-carboxylic acid] | < 100 nM
COc1cc(C(=O)N2[C@@H](c3ncc(C)s3)[C@@H](c3cnccn3)C[C@@]2(Cn2cccn2)C(=O)O)ccc1C(C)(C)C (racemic) [Example 9, rel-(2R,4S,5R)-1-(3-Methoxy-4-tert-butylbenzoyl)-5-(5-methyl-1,3-thiazol-2-yl)-4-(pyrazin-2-yl)-2-(1H-pyrazol-1-ylmethyl)pyrrolidine-2-carboxylic acid] | < 100 nM
COc1cc(C(=O)N2[C@@H](c3nccs3)[C@@H](c3cnccn3)C[C@@]2(Cn2cccn2)C(=O)O)ccc1C(C)(C)C (racemic) [Example 11, rel-(2R,4S,5R)-1-(3-Methoxy-4-tert-butylbenzoyl)-4-(pyrazin-2-yl)-2-(1H-pyrazol-1-ylmethyl)-5-(1,3-thiazol-2-yl)pyrrolidine-2-carboxylic acid] | < 100 nM
COc1cc(C(=O)N2[C@@H](c3ncc(C)s3)[C@@H](c3cnccn3)C[C@@]2(Cc2nccs2)C(=O)O)ccc1C(C)(C)C (racemic) [Example 13, rel-(2R,4S,5R)-1-(3-Methoxy-4-tert-butylbenzoyl)-5-(5-methyl-1,3-thiazol-2-yl)-4-(pyrazin-2-yl)-2-(1,3-thiazol-2-ylmethyl)pyrrolidine-2-carboxylic acid] | < 100 nM
COc1cc(C(=O)N2[C@@H](c3ncc(C)s3)[C@@H](c3cnccn3)C[C@@]2(Cc2cscn2)C(=O)O)ccc1C(C)(C)C (racemic) [Example 15, rel-(2R,4S,5R)-1-(3-Methoxy-4-tert-butylbenzoyl)-5-(5-methyl-1,3-thiazol-2-yl)-4-(pyrazin-2-yl)-2-(1,3-thiazol-4-ylmethyl)pyrrolidine-2-carboxylic acid] | < 100 nM
COc1cc(C(=O)N2[C@@H](c3nccs3)[C@@H](c3cnccn3)C[C@@]2(CC(C)C)C(=O)O)ccc1C(C)(C)C (single isomer, unassigned; enantiomer a) [Compound B, reference compound] | 100 to 10000 nM
COc1cc(C(=O)N2[C@@H](c3nccs3)[C@@H](c3cnccn3)C[C@@]2(Cc2cscn2)C(=O)O)ccc1C(C)(C)C (single isomer, unassigned; enantiomer a) [Example 2] | < 100 nM
COc1cc(C(=O)N2[C@@H](c3nccs3)[C@@H](c3cnccn3)C[C@@]2(Cc2nccs2)C(=O)O)ccc1C(C)(C)C (single isomer, unassigned; enantiomer a) [Example 4] | < 100 nM
COc1cc(C(=O)N2[C@@H](c3ncc(C)s3)[C@@H](c3cnccn3)C[C@@]2(Cc2ccsn2)C(=O)O)ccc1C(C)(C)C (single isomer, unassigned; enantiomer a) [Example 6] | < 100 nM
COc1cc(C(=O)N2[C@@H](c3nccs3)[C@@H](c3cnccn3)C[C@@]2(Cc2ccsn2)C(=O)O)ccc1C(C)(C)C (single isomer, unassigned; enantiomer a) [Example 8] | < 100 nM
COc1cc(C(=O)N2[C@@H](c3ncc(C)s3)[C@@H](c3cnccn3)C[C@@]2(Cn2cccn2)C(=O)O)ccc1C(C)(C)C (single isomer, unassigned; enantiomer a) [Example 10] | < 100 nM
COc1cc(C(=O)N2[C@@H](c3nccs3)[C@@H](c3cnccn3)C[C@@]2(Cn2cccn2)C(=O)O)ccc1C(C)(C)C (single isomer, unassigned; enantiomer a) [Example 12] | < 100 nM
COc1cc(C(=O)N2[C@@H](c3ncc(C)s3)[C@@H](c3cnccn3)C[C@@]2(Cc2nccs2)C(=O)O)ccc1C(C)(C)C (single isomer, unassigned; enantiomer a) [Example 14] | < 100 nM
COc1cc(C(=O)N2[C@@H](c3ncc(C)s3)[C@@H](c3cnccn3)C[C@@]2(Cc2cscn2)C(=O)O)ccc1C(C)(C)C (single isomer, unassigned; enantiomer a) [Example 16] | < 100 nM
